Values of other authors, collected in patent US20160287532A1 (SignPath Pharma Inc., priority 2015, published 2016).
Like-named read-outs stand apart in the source and are kept apart here.

Assays:
IL-8 [1] = conditions: 10 μM EGCG, IL-1β stimulated
IL-6 [2] = conditions: 10 μM EGCG, IL-1β stimulated
COX-2 = conditions: 10 μM EGCG, IL-1β stimulated
MMP-3 [3] = conditions: 10 μM EGCG, IL-1β stimulated
MMP-13 [4] = conditions: 10 μM EGCG, IL-1β stimulated
MMP-1 [5] = conditions: 10 μM EGCG, IL-1β stimulated
MMP-1 [6] = conditions: IL-1β pre-stimulated disc cells
TNF-α [7] = conditions: Wistar albino rats, experimental acute pancreatitis
interferon-γ [8] = conditions: viral induced ARDS mouse model
IL-8 [9] = conditions: monocytes, high glucose environment
MMP-9 [10] = conditions: chondrocytes
collagen type II = conditions: IVD cells of patients with acute spinal injury
MMP-3 [11] = conditions: oral, mice; dose dependent manner
IL-8 [12] = conditions: monocytes and macrophages
IL-6 [13] = conditions: monocytes, high glucose environment
NF-κB [14] = conditions: chondrocytes
IL-6 [15] = test system: IL-6
interferon-γ [16] = conditions: splenic T lymphocytes
NF-κB [17] = conditions: IVD cells of patients with acute spinal injury
IL-6 [18] = conditions: rheumatoid synovial fibroblasts
MMP-9 [19] = conditions: human astroglioma cells
MMP-9 [20] = molecular target: T1, MMP-9 (Homo sapiens, UniProt P14780); conditions: helicobacter pylori infected cells; dose dependent
T1 construct: endogenous in cells; host or cells: human gastric epithelial cells infected with Helicobacter pylori
T1 sequence (P14780 94-707): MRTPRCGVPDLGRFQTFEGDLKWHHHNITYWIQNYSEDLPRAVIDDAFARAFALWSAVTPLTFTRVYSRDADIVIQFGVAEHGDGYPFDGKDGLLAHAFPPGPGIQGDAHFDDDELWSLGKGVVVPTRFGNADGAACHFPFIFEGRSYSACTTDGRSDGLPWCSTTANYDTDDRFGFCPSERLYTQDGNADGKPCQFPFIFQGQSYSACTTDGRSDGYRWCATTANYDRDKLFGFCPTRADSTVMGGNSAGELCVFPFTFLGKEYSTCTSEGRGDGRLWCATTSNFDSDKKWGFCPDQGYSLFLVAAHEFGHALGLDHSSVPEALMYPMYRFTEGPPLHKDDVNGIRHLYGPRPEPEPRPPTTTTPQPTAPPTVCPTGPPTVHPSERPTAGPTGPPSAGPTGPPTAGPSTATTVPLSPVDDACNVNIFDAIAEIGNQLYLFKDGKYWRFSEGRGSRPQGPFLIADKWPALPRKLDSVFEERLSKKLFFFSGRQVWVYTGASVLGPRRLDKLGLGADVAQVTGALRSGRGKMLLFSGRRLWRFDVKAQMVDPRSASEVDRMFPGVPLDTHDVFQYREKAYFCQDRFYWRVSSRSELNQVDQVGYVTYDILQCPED

IL-8 [21] = conditions: rats with non-bacterial prostatitis
MMP-9 [22] = conditions: A549 in vitro
MMP-1 [23] = conditions: oral, mice; dose dependent manner
IL-8 [24] = conditions: human articular chondrocytes
MMP-3 [25] = conditions: curcumin added to cell culture
SOX9 = conditions: IVD cells of patients with acute spinal injury
[26] = test system: pro-inflammatory cytokines; conditions: pancreatic carcinoma cell lines
MMP-3 [27] = conditions: human astroglioma cells
TIMP-1 [28] = conditions: MDA-MB-231 cells
TIMP-1 [29] = conditions: high concentrations of curcumin
MMP-3 [30] = conditions: equine cartilage explants; dose dependent
MMP-2 [31] = conditions: MDA breast cancer cell line
acute pancreatitis = acute pancreatitis mouse model
[32] = test system: monocyte chemoattractant protein-1 (MCP-1); conditions: monocytes and macrophages
MMP-2 [33] = conditions: MDA-MB-231 cells
MMP-3 [34] = molecular target: T2, MMP-3 (Homo sapiens, UniProt P08254); conditions: IL-1β stimulated chondrocytes
T2 construct: endogenous in cells; host or cells: IL-1β stimulated chondrocytes
T2 sequence (P08254 100-477): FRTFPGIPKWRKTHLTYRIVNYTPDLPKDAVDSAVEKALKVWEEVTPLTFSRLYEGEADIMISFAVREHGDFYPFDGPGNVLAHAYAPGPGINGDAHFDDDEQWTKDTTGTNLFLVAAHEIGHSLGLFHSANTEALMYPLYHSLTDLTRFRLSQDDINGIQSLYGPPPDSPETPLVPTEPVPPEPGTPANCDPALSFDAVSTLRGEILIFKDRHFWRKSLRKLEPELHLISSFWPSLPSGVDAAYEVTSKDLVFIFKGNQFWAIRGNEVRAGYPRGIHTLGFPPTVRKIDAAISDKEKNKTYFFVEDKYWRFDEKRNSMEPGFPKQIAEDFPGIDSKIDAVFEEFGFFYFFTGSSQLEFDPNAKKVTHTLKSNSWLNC

IL-8 [35] = conditions: viral induced ARDS mouse model
MMP-9 [36] = conditions: MDA breast cancer cell line
TNF-α [37] = conditions: monocytes and macrophages
IL-8 [38] = conditions: 20 μM curcumin
COX2 = conditions: chondrocytes
TNF-α [39] = conditions: acute pancreatitis mouse model
IL-1β [40] = test system: IL-1β
TIMP-2 = conditions: high concentrations of curcumin
IL-6 [41] = conditions: rats with non-bacterial prostatitis
TNF-α [42] = conditions: peritoneal macrophages
IL-8 [43] = conditions: human esophageal epithelial cells
MCP-1 [44] = conditions: monocytes, high glucose environment
[45] = test system: type II collagen-induced arthritis; conditions: oral, mice; dose dependent manner
MMP-3 [46] = test system: MMP-3
[47] = test system: macrophage inflammatory protein-1α (MIP-1α); conditions: monocytes and macrophages
IL-6 [48] = conditions: viral induced ARDS mouse model
TIMP-3 = conditions: high concentrations of curcumin
[49] = if injected intravenously
IL-12 = conditions: peritoneal macrophages
MMP-2 [50] = conditions: A549 in vitro
IL-6 [51] = conditions: Wistar albino rats, experimental acute pancreatitis
[52] = test system: pro-inflammatory cytokines; conditions: multiple myeloma cell lines
[53] = test system: pro-inflammatory cytokines; conditions: colon carcinoma cell lines
IL-1β [54] = conditions: monocytes and macrophages
MMP-3 [55] = conditions: helicobacter pylori infected cells; dose dependent
MCP-1 [56] = conditions: viral induced ARDS mouse model
TIMP-4 = conditions: high concentrations of curcumin
IL-2 = conditions: splenic T lymphocytes
[57] = test system: pro-inflammatory cytokines; conditions: hepatocellular carcinoma cell lines
[58] = test system: viral induced acute respiratory distress syndrome; conditions: viral induced ARDS mouse model
MMP-1 [59] = conditions: human astroglioma cells
TNF-α [60] = conditions: rats with non-bacterial prostatitis
TNF-α [61] = conditions: monocytes, high glucose environment
IL-6 [62] = conditions: IVD cells pre-treated with IL-1β
MMP-1 [63] = conditions: IVD cells pre-treated with IL-1β
IL-8 [64] = conditions: IVD cells pre-treated with IL-1β
MMP-3 [65] = conditions: IVD cells pre-treated with IL-1β
MMP-13 [66] = conditions: IVD cells pre-treated with IL-1β
MMP-3 [67] = conditions: after treatment; decreased from 0.9 ng/mg tissue
MMP-1 [68] = conditions: treated IVD samples

epigallocatechin 3-gallate [EGCG]
expression of IL-8 (IL-8 [1]): inhibited | expression of IL-6 (IL-6 [2]): inhibited | expression of COX-2 (COX-2): inhibited | expression of MMP-3 (MMP-3 [3]): inhibited | expression of MMP-13 (MMP-13 [4]): inhibited | expression of MMP-1 (MMP-1 [5]): inhibited

COc1cc(/C=C/C(=O)/C=C(O)/C=C/c2ccc(O)c(OC)c2)ccc1O [curcumin, 1,7-bis(4-hydroxy-3-methoxyphenyl)-1,6-heptadiene-3,5-dione]
reduction in MMP-1 expression (MMP-1 [6]; 5 μM curcumin): 22% | reduction in MMP-1 expression (MMP-1 [6]; 10 μM curcumin): 60% | reduction in MMP-1 expression (MMP-1 [6]; 20 μM curcumin): 78% | TNF-α levels (TNF-α [7]): reduced | expression of interferon-γ (interferon-γ [8]): reduced | release of IL-8 (IL-8 [9]): markedly reduced | MMP-9 regulation (MMP-9 [10]): down regulation | IL-1 inhibition of collagen type II expression (collagen type II): reversed | MMP-3 expression in joints (MMP-3 [11]): suppress | IL-8 release (IL-8 [12]): suppresses | release of IL-6 (IL-6 [13]): markedly reduced | IL-1 induced NF-κB activation (NF-κB [14]): decrease | expression of IL-6 decreased (IL-6 [15]; 10 μM curcumin): 50% | expression of IL-6 decreased (IL-6 [15]; 20 μM curcumin): 70% | production of interferon-γ (interferon-γ [16]): inhibited | IL-1 induced NF-κB activity (NF-κB [17]): blocked | release of IL-6 (IL-6 [18]): block | MMP-9 (MMP-9 [19]): Suppression | MMP-9 activity (MMP-9 [20]): suppressed | IL-8 expression (IL-8 [21]): reduced | MMP-9 (MMP-9 [22]): Inhibition | MMP-1 expression in joints (MMP-1 [23]): suppress | release of IL-8 (IL-8 [24]): block | MMP-3 (MMP-3 [25]): dose dependent suppression | IL-1 inhibition of SOX9 expression (SOX9): reversed | pro-inflammatory cytokines [26]: suppressed | MMP-3 (MMP-3 [27]): Suppression | TIMP-1 (TIMP-1 [28]): up-regulated | TIMP-1 (TIMP-1 [29]): up-regulated | IL-1β stimulated MMP-3 release (MMP-3 [30]): reduced | MMP-2 (MMP-2 [31]): inhibited | pancreatic injury (acute pancreatitis): decreased | MCP-1 release [32]: suppresses | MMP-2 (MMP-2 [33]): down-regulated | MMP-3 activity (MMP-3 [34]): inhibited | expression of IL-8 (IL-8 [35]): reduced | MMP-9 (MMP-9 [36]): inhibited | TNF-α release (TNF-α [37]): suppresses | IL-8 expression reduced (IL-8 [38]): 50% | COX2 regulation (COX2): down regulation | TNF-α levels (TNF-α [39]): suppression | Expression of IL-1β reduced (IL-1β [40]; 10 μM curcumin): 70% | Expression of IL-1β reduced (IL-1β [40]; 20 μM curcumin): 75% | TIMP-2 (TIMP-2): up-regulated | IL-6 expression (IL-6 [41]): reduced | production of TNF-α (TNF-α [42]): inhibited | release of IL-8 (IL-8 [43]): block | release of MCP-1 (MCP-1 [44]): markedly reduced | type II collagen-induced arthritis [45]: suppress | MMP-3 expression reduced (MMP-3 [46]; 10 μM curcumin): 70% | MMP-3 expression reduced (MMP-3 [46]; 20 μM curcumin): 75% | MIP-1α release [47]: suppresses | expression of IL-6 (IL-6 [48]): reduced | TIMP-3 (TIMP-3): up-regulated | cardiopathy [49]: QT prolongation | expression of IL-12 (IL-12): inhibited | MMP-2 (MMP-2 [50]): Inhibition | IL-6 levels (IL-6 [51]): reduced | pro-inflammatory cytokines [52]: suppressed | pro-inflammatory cytokines [53]: suppressed | IL-1β release (IL-1β [54]): suppresses | MMP-3 activity (MMP-3 [55]): suppressed | expression of MCP-1 (MCP-1 [56]): reduced | TIMP-4 (TIMP-4): up-regulated | expression of IL-2 (IL-2): inhibited | pro-inflammatory cytokines [57]: suppressed | fibrosis [58]: reduction | inflammation [58]: marked decrease | MMP-1 (MMP-1 [59]): Suppression | TNF-α expression (TNF-α [60]): reduced | release of TNF-α (TNF-α [61]): markedly reduced

Oc1ccc(C=Cc2cc(O)cc(O)c2)cc1 [Resveratrol, resveratrol]
levels of IL-6 (IL-6 [62]): reduced | levels of MMP-1 (MMP-1 [63]): reduced | levels of IL-8 (IL-8 [64]): reduced | levels of MMP-3 (MMP-3 [65]): reduced | levels of MMP-13 (MMP-13 [66]): reduced

IL-1Ra: recombinant interleukin-1 receptor antagonist
concentration of total MMP-3 activity (MMP-3 [67]): 0.35 ng/mg tissue | effect on MMP-1 concentration (MMP-1 [68]): no effect
